Measurements: EP4745118A1, “HYDROXAMIC ACID COMPOUND OR PHARMACEUTICALLY ACCEPTABLE SALT THEREOF, AND USE THEREOF AND PREPARATION METHOD THEREFOR” (priority 2023, dated 2025)
In brackets after ≈: the same amount, converted by molar mass. Where two headings read alike, the source gives them in different places.

Legend:
[1] = test system: Shigella flexneri; assay: In vitro antibacterial activity, agar dilution method (MIC); type: cell-based; settings: ATCC12022, Shigella flexneri ATCC 12022, 35°C, 18 hours, read-out: MIC
Procedure: According to the relevant operating procedures of the Clinical Laboratory Standards Institute (CLSI) in the United States, an antimicrobial susceptibility testing was conducted using the agar dilution method. A 1920 µg/mL stock solution was serially diluted twofold with sterile water to obtain dilutions of 960, 480, 240, 120, 60, 30, 15, 7.5, 3.75, 1.88, 0.94, 0.47 µg/mL, and 1 mL of the dilution was taken respectively from the dilutions with different concentrations and added to a Petri dish, to which 14 mL of melted MH agar medium was added and mixed thoroughly, and the final concentration of the drug in the petri dish is 128, 64, 32, 16, 8, 4, 2, 1, 0.5, 0.25, 0.12, 0.06, and 0.03 µ g/mL, respectively. The agar was allowed to solidify and set aside for later use.
(§1) The test bacteria were propagated in broth and adjusted to a turbidity of 0.5 McFarland (approximately 1-2 × 10^8 CFU/mL) using a turbidimeter before inoculation. The 0.5 McFarland bacterial solution was then diluted 10-fold in broth (approximately 1-2 × 10^7 CFU/mL). A multipoint inoculator was used to inoculate the above bacterial solution onto a series of plates containing different concentrations of drugs (with an inoculation amount of approximately 10^4 CFU per inoculation site). After incubation at a constant temperature of 35°C for 18 hours, results were observed. The minimum concentration of drugs contained in sterile growth plates was determined as the Minimal Inhibitory Concentration (MIC).

[2] = test system: Enterobacter aerogenes; assay: as above; type: cell-based; settings: Klebsiella aerogenes
Procedure: (§2) According to the relevant operating procedures of the Clinical Laboratory Standards Institute (CLSI) in the United States, an antimicrobial susceptibility testing was conducted using the agar dilution method. […]. The agar was allowed to solidify and set aside for later use.
as §1

[3] = test system: Pantoea agglomerans; assay: as above; type: cell-based
Procedure: as §2, §1

[4] = test system: Escherichia coli; assay: as above; type: cell-based; settings: Escherichia coli, agar dilution, 35°C
Procedure: as §2, §1

[5] = test system: Pseudomonas aeruginosa; assay: as above; type: cell-based
Procedure: as §2, §1

[6] = test system: Proteus mirabilis; assay: as above; type: cell-based
Procedure: as §2, §1

[7] = test system: Serratia marcescens; assay: as above; type: cell-based
Procedure: as §2, §1

[8] = test system: Citrobacter freundii; assay: as above; type: cell-based
Procedure: as §2, §1

[9] = test system: Proteus vulgaris; assay: as above; type: cell-based
Procedure: as §2, §1

[10] = test system: Klebsiella pneumoniae; assay: as above; type: cell-based; settings: Klebsiella pneumoniae, agar dilution, 35°C
Procedure: as §2, §1

[11] = test system: ICR strain mice; assay: Acute toxicity in mice, single tail vein injection; type: in vivo; settings: one week
Procedure: Healthy ICR strain mice weighing 20-21 g were taken for the experiment, randomly divided into groups of 3 mice per group, regardless of gender. Each compound was administered via a single tail vein injection at a volume of 20 mL/kg. Animal responses were observed immediately postadministration and monitored for one week. The number of animal deaths was recorded and mortality rates calculated.

[12] = ATCC13048, Enterobacter aerogenes ATCC 13048, agar dilution, 35°C, 18 hours, read-out: MIC
[13] = ATCC27993, Pantoea agglomerans ATCC 27993, agar dilution, 35°C, 18 hours, read-out: MIC
[14] = 18 h, Escherichia coli 13-43 (mcr-1), 18 hours, read-out: MIC
[15] = 18 h, Escherichia coli 17-R28 (CRE, NDM-1-producing), 18 hours, read-out: MIC
[16] = ATCC2469, 18 h, Escherichia coli ATCC 2469 (CRE, NDM-1-producing), 18 hours, read-out: MIC
[17] = ATCC35218, 18 h, Escherichia coli ATCC 35218 (ESBLs-producing), 18 hours, read-out: MIC
[18] = Pseudomonas aeruginosa PAO1, agar dilution, 35°C, 18 hours, read-out: MIC
[19] = ATCC49565, Proteus mirabilis ATCC 49565, agar dilution, 35°C, 18 hours, read-out: MIC
[20] = ATCC21074, Serratia marcescens ATCC 21074, agar dilution, 35°C, 18 hours, read-out: MIC
[21] = ATCC43864, Citrobacter freundii ATCC 43864, agar dilution, 35°C, 18 hours, read-out: MIC
[22] = ATCC29905, Proteus vulgaris ATCC 29905, agar dilution, 35°C, 18 hours, read-out: MIC
[23] = 18 h, Klebsiella pneumoniae 09-20 (mcr-1), 18 hours, read-out: MIC
[24] = 18 h, Klebsiella pneumoniae 17-R27 (CRE), 18 hours, read-out: MIC
[25] = 18 h, Klebsiella pneumoniae 18-8 (ESBLs-producing), 18 hours, read-out: MIC
[26] = ATCC700603, 18 h, Klebsiella pneumoniae ATCC 700603 (ESBLs-producing), 18 hours, read-out: MIC
[27] = ATCCBAA2146, 18 h, Klebsiella pneumoniae ATCC BAA-2146 (CRE, NDM-1-producing), 18 hours, read-out: MIC

Compound: COC[C@@H]1C[C@@H]1C#CC#Cc1ccc(C(=O)N[C@H](C(=O)NO)C(C)(C)N)cc1 [Id, N-(S)-3-amino-1-hydroxyamino-3-methyl-1-oxobutan-2-yl-4-[[(1S,2R)-2-(methoxymethylene)cyclopropyl]but-1,3-diynyl]benzamide]
- MIC [1]: 0.06 µg/mL (≈ 0.156 µM)
- MIC [2, 12]: 0.5 µg/mL (≈ 1.3 µM)
- MIC [3, 13]: 1 µg/mL (≈ 2.61 µM)
- MIC [4, 14]: 0.5 µg/mL (≈ 1.3 µM)
- MIC [4, 15]: 0.25 µg/mL (≈ 0.652 µM)
- MIC [4, 16]: 0.25 µg/mL (≈ 0.652 µM)
- MIC [4, 17]: 0.25 µg/mL (≈ 0.652 µM)
- MIC [5, 18]: 1 µg/mL (≈ 2.61 µM)
- MIC [6, 19]: 1 µg/mL (≈ 2.61 µM)
- MIC [7, 20]: 0.25 µg/mL (≈ 0.652 µM)
- MIC [8, 21]: 0.25 µg/mL (≈ 0.652 µM)
- MIC [9, 22]: 0.12 µg/mL (≈ 0.313 µM)
- MIC [10, 23]: 0.5 µg/mL (≈ 1.3 µM)
- MIC [10, 24]: 0.5 µg/mL (≈ 1.3 µM)
- MIC [10, 25]: 0.5 µg/mL (≈ 1.3 µM)
- MIC [10, 26]: 2 µg/mL (≈ 5.22 µM)
- MIC [10, 27]: 2 µg/mL (≈ 5.22 µM)
- Mortality rate ([11]; dose 100 mg/kg): 0%
- Number of deaths ([11]; dose 100 mg/kg): 0 individuals
- Mortality rate ([11]; dose 150 mg/kg): 67%
- Number of deaths ([11]; dose 150 mg/kg): 2 individuals
- Mortality rate ([11]; dose 200 mg/kg): 100%
- Number of deaths ([11]; dose 200 mg/kg): 3 individuals

Compound: CC(C)(N)[C@H](NC(=O)c1ccc(C#CC#C[C@@H]2C[C@H]2CO)cc1)C(=O)NO [ACHN-975]
- MIC [1]: 0.12 µg/mL (≈ 0.325 µM)
- MIC ([2]; ATCC13048, 18 h): 1 µg/mL (≈ 2.71 µM)
- MIC ([3]; Pantoea agglomerans, ATCC27993, 18 h): 4 µg/mL (≈ 10.8 µM)
- MIC ([4]; 18 h, Escherichia coli 13-43 (mcr-1)): 0.5 µg/mL (≈ 1.35 µM)
- MIC ([4]; 18 h, Escherichia coli 17-R28 (CRE, NDM-1-producing)): 0.5 µg/mL (≈ 1.35 µM)
- MIC ([4]; ATCC2469, 18 h, Escherichia coli ATCC 2469 (CRE, NDM-1-producing), 18 hours): 0.5 µg/mL (≈ 1.35 µM)
- MIC [4, 17]: 0.5 µg/mL (≈ 1.35 µM)
- MIC ([5]; Pseudomonas aeruginosa, PAO1, 18 h): 0.25 µg/mL (≈ 0.677 µM)
- MIC ([6]; Proteus mirabilis, ATCC49565, 18 h): 2 µg/mL (≈ 5.41 µM)
- MIC ([7]; Serratia marcescens, ATCC21074, 18 h): 0.25 µg/mL (≈ 0.677 µM)
- MIC ([8]; Citrobacter freundii, ATCC43864, 18 h): 0.5 µg/mL (≈ 1.35 µM)
- MIC ([9]; Proteus vulgaris, ATCC29905, 18 h): 0.06 µg/mL (≈ 0.162 µM)
- MIC ([10]; 18 h, Klebsiella pneumoniae 09-20 (mcr-1)): 1 µg/mL (≈ 2.71 µM)
- MIC ([10]; 18 h, Klebsiella pneumoniae 17-R27 (CRE)): 2 µg/mL (≈ 5.41 µM)
- MIC [10, 25]: 1 µg/mL (≈ 2.71 µM)
- MIC [10, 26]: 4 µg/mL (≈ 10.8 µM)
- MIC ([10]; ATCCBAA2146, 18 h, Klebsiella pneumoniae ATCC BAA-2146 (CRE, NDM-1-producing), 18 hours): 4 µg/mL (≈ 10.8 µM)
- Mortality rate ([11]; dose 50 mg/kg): 0%
- Number of deaths ([11]; dose 50 mg/kg): 0 individuals
- Mortality rate ([11]; dose 100 mg/kg): 67%
- Number of deaths ([11]; dose 100 mg/kg): 2 individuals
- Mortality rate ([11]; dose 150 mg/kg): 100%
- Number of deaths ([11]; dose 150 mg/kg): 3 individuals

Compound: COC[C@@H]1C[C@H]1C#CC#Cc1ccc(C(=O)N[C@H](C(=O)NO)C(C)(C)N)cc1 [Ia, N-(S)-3-amino-1-hydroxyamino-3-methyl-1-oxobutan-2-yl-4-[[(1R,2R)-2-(methoxymethylene)cyclopropyl]but-1,3-diynyl]benzamide]
- MIC [1]: 0.06 µg/mL (≈ 0.156 µM)
- MIC [2, 12]: 0.5 µg/mL (≈ 1.3 µM)
- MIC [3, 13]: 0.5 µg/mL (≈ 1.3 µM)
- MIC [4, 14]: 0.12 µg/mL (≈ 0.313 µM)
- MIC [4, 15]: 0.12 µg/mL (≈ 0.313 µM)
- MIC [4, 16]: 0.12 µg/mL (≈ 0.313 µM)
- MIC [4, 17]: 0.12 µg/mL (≈ 0.313 µM)
- MIC [5, 18]: 0.5 µg/mL (≈ 1.3 µM)
- MIC [6, 19]: 0.25 µg/mL (≈ 0.652 µM)
- MIC [7, 20]: 0.25 µg/mL (≈ 0.652 µM)
- MIC [8, 21]: 0.25 µg/mL (≈ 0.652 µM)
- MIC [9, 22]: 0.12 µg/mL (≈ 0.313 µM)
- MIC [10, 23]: 0.25 µg/mL (≈ 0.652 µM)
- MIC [10, 24]: 0.5 µg/mL (≈ 1.3 µM)
- MIC [10, 25]: 0.06 µg/mL (≈ 0.156 µM)
- MIC [10, 26]: 1 µg/mL (≈ 2.61 µM)
- MIC [10, 27]: 1 µg/mL (≈ 2.61 µM)
- Mortality rate ([11]; dose 150 mg/kg): 0%
- Number of deaths ([11]; dose 150 mg/kg): 0 individuals
- Mortality rate ([11]; dose 200 mg/kg): 100%
- Number of deaths ([11]; dose 200 mg/kg): 3 individuals
